According to article PMC11341359, “Assessing the immunogenicity risk of salmon calcitonin peptide impurities using in silico and in vitro methods” (Frontiers in Pharmacology, 2024):
Bridge positions count the residues as written; N and C are the ends. Ends that are not written are not given here. Peptide text beside a SMILES is read from it.

Tests used:
[1] = target: T1, HLA DRB1*0101 (Homo sapiens, UniProt P01903+P01911, A100R/D57E/F55L/F60I/F76Y/I96L/L162R/M171V/P40L/Q125E/R42F/V115G/Y59C); assay: Class II HLA competition binding assay; details: short assay peptides (Cys7 replaced with Ser), competition with biotinylated allele-specific peptide, soluble HLA DR, overnight, time-resolved fluorescence, triplicate, seven concentrations
T1 construct: incubated overnight to equilibrium with a soluble HLA DR molecule; purchased Benaroya Research Institute, Seattle, Washington
Experimental: (§1) The class II HLA binding assays performed for these studies measure the binding affinity of a target peptide to HLA DRB1*0101, *0301, *0401, *0701, *0901, *1101, *1301, and *1501 in a standardized competition assay. This assay was originally described by [Steere et al. (2006)] and adapted by EpiVax. Previous publications have described the assay in detail ([McMurry et al., 2007]; [Ardito et al., 2011]). Briefly, unlabeled test peptides are incubated overnight to equilibrium with a soluble HLA DR molecule (Benaroya Research Institute, Seattle, Washington) and a biotinylated, allele-specific competitor peptide. The binding reaction is then neutralized, and peptide–HLA complexes are transferred to a 96-well plate coated with the pan-HLA DR antibody, clone L243 (BioLegend), and incubated overnight. The following day, Europium-labeled streptavidin (PerkinElmer, Waltham, MA) is added to identify the peptide–HLA complexes. An indirect measure of binding is determined by time-resolved fluorescence. Each peptide–HLA binding reaction is evaluated in triplicate over a range of seven concentrations. The percent inhibition values at seven distinct concentrations are used to calculate the IC50 value, defined as the concentration at which the test peptide inhibits 50% of the labeled competitor peptide.
(§2) Peptides that bind to the HLA at an IC50 value of 100 nM or less are considered very high-affinity binders. Peptides that bind at IC50 values ranging from 100 nM to 1,000 nM are considered high-affinity binders. Peptides that bind at IC50 values ranging from 1,000 nM to 10,000 nM are considered moderate-affinity binders. Peptides that bind at IC50 values ranging from 10,000 nM to 100,000 nM are considered low-affinity binders, and those with IC50 values ranging from 100,000 nM to 1,000,000 nM are considered negligible-affinity binders. […] We note that these concentrations are specific for the in vitro HLA-binding assay and are used to compare the relative binding affinities of the impurity sequences to the API and independent from the peptide concentrations described for the in vitro T-cell assays described below.

[2] = target: T2, HLA DRB1*0301 (Homo sapiens, UniProt P01903+P01911, A100K/A102G/A103R/A169T/F55Y/I96L/K41T/L162R/M171V/P40S/Q125H/Q178H/Q39Y/R42S/S66N/T106N/T262R/W38E/Y61H); assay: Class II HLA competition binding assay; details: short assay peptides (Cys7 replaced with Ser), competition with biotinylated allele-specific peptide, soluble HLA DR, overnight, time-resolved fluorescence, triplicate, seven concentrations; for IC50, HLA DRB1*0301: unit not given
T2 construct: incubated overnight to equilibrium with a soluble HLA DR molecule; purchased Benaroya Research Institute, Seattle, Washington
Experimental: as §1, §2

[3] = target: HLA DRB1*0901 (Homo sapiens, UniProt P01903+P01911, A100R/A103E/D57H/D86V/F55Y/F60I/F76Y/I96F/K127E/L162R/M171V/P40D/Q125H/Q99R/R33Q/R42F/S133A/S66N/T210M/V115G/W38K/Y107V/Y59G/Y89S); assay: Class II HLA competition binding assay; details: short assay peptides (Cys7 replaced with Ser); competition with biotinylated allele-specific peptide, soluble HLA DR, overnight, time-resolved fluorescence, triplicate, seven concentrations
Experimental: as §1, §2

[4] = target: T3, HLA DRB1*0401 (Homo sapiens, UniProt P01903+P01911, A100K/A169T/F76Y/I96L/K127E/L162R/M171V/N62H/P40V/Q125Y/R42H/S133A/S149N/S66Y/V115G/V209L/W38E); assay: Class II HLA competition binding assay; details: short assay peptides (Cys7 replaced with Ser); competition with biotinylated allele-specific peptide, soluble HLA DR, overnight, time-resolved fluorescence, triplicate, seven concentrations
T3 construct: incubated overnight to equilibrium with a soluble HLA DR molecule; purchased Benaroya Research Institute, Seattle, Washington
Experimental: as §1, §2

[5] = target: T4, HLA DRB1*1101 (Homo sapiens, UniProt P01903+P01911, A100R/A169T/A87E/I96F/K41T/L162R/M171V/P40S/Q125H/Q178H/Q39Y/Q99D/R42S/S66Y/T262R/V115G/W38E); assay: Class II HLA competition binding assay
T4 construct: incubated overnight to equilibrium with a soluble HLA DR molecule; purchased Benaroya Research Institute, Seattle, Washington
Experimental: as §1, §2

[6] = target: T5, HLA DRB1*1501 (Homo sapiens, UniProt P01903+P01911); assay: Class II HLA competition binding assay
T5 construct: incubated overnight to equilibrium with a soluble HLA DR molecule; purchased Benaroya Research Institute, Seattle, Washington
Experimental: as §1, §2

[7] = target: T6, HLA DRB1*1301 (Homo sapiens, UniProt P01903+P01911, A100E/A169T/K41T/L162R/M171V/P40S/Q125H/Q178H/Q39Y/Q99D/R42S/S66N/T262R/W38E/Y61H); assay: Class II HLA competition binding assay; details: short assay peptides (Cys7 replaced with Ser), competition with biotinylated allele-specific peptide, soluble HLA DR, overnight, time-resolved fluorescence, triplicate, seven concentrations
T6 construct: incubated overnight to equilibrium with a soluble HLA DR molecule; purchased Benaroya Research Institute, Seattle, Washington
Experimental: as §1, §2

[8] = target: HLA DRB1*0701 (Homo sapiens, UniProt P01903+P01911, A100R/A102G/A103Q/D57E/D86V/E43K/F76Y/K127E/L162R/M171V/P40G/Q125H/Q99D/R33Q/R42Y/R54Q/S133A/S66F/T210M/V115G/Y107V/Y59L/Y89S); assay: Class II HLA competition binding assay; details: short assay peptides (Cys7 replaced with Ser); competition with biotinylated allele-specific peptide, soluble HLA DR, overnight, time-resolved fluorescence, triplicate, seven concentrations
Experimental: as §1, §2

[9] = system: human donor PBMCs; assay: In vitro immunogenicity protocol (IVIP) naïve T-cell assay, IFNγ FluoroSpot; type: cell-based; details: individual full-length peptides at 20 μg/mL, 14 days, then 48 h IFNγ FluoroSpot; 16 donors; positive: SFC > 50 per 10^6, SI ≥ 2, p < 0.05 vs medium
Experimental: To improve the sensitivity of the T-cell assays, fresh (not frozen) blood samples were obtained from human blood donors for the T-cell assays (internal observations). Specifically, PBMCs were isolated from leukocyte reduction filters obtained from the Rhode Island Blood Center (RIBC) in Providence, RI. To confirm the sufficient breadth of HLA coverage in the donor cohort, high-resolution (4-digit) class II HLA haplotyping of donors was performed at the Transplant Immunology Laboratory at Hartford Hospital in Hartford, CT, using the sequence-specific oligonucleotide method (SSP-PCR). […] supertype alleles were expressed by the donor PBMCs used in the assays reported here (HLA DRB1*0301, *0401, *0701, *1101, *1301, and *1501). The HLA identified for the cohort of subjects used in this study is representative of 81.81% of the HLA alleles expressed by the global population. Forty percent of the donors were female and 60% of the donors were male, and their ages ranged from 17 to 83 years. Donor cohort demographic information and HLA types for each donor are provided in Supplementary Figure S1. To measure the naïve T-cell response to salmon calcitonin and impurity peptides, cells were plated at a density of 2.5 × 10^5 cells per well in 96-well U-bottom cell plates in RPMI 1640 cell culture medium supplemented with IL-2 (10 ng/mL) and IL-7 (20 ng/mL) (Gibco). The cells were incubated with […]®, or a synthetic salmon calcitonin peptide, or individual peptide impurities, at a concentration of 20 μg/mL for 14 days at 37°C/5% CO2, with medium exchanges that include cytokine support (IL-2 and IL-7) on days 4, 7, and 11. A concentration of 20 μg/mL (5.8 μM) was the dose selected for the SCT API and the four selected impurities, following a dose-ranging study performed with […]® to determine the maximum dose at which a T-cell response could be observed with no observed toxicity to the cells. The dose-ranging study was performed following the same protocol as described above. The following control antigens were used in the T-cell assays for each of the PBMC samples: positive controls, keyhole limpet hemocyanin (KLH; Thermo Fisher), and the antigenic peptide pool CEFT (ImmunoSpot). In addition, human serum albumin (HSA; Sigma-Aldrich) was used as a negative control antigen, and phytohemagglutinin (PHA; Thermo Fisher), a T-cell mitogen, was used to confirm T-cell functionality. […] Responses were considered positive if (1) the number of spots was at least twice the background (stimulation index [SI] ≥ 2); (2) there were greater than 50 spot-forming cells (SFCs) per 1.0 × 10^6 PBMCs; and (3) responses were statistically different from the media (Student's t-test). Each of the test articles (SCT API, RLD, or impurity peptide) and each of the positive and negative controls were evaluated in nine replicate wells containing donor PBMCs. Following the 14-day incubation, cells in the nine replicate wells were collected, pooled by the treatment condition, and re-plated in triplicate on a precoated anti-human IFNγ FluoroSpot plate (Mabtech) at a concentration of 1.0 × 10^5 cells per well in the presence of an appropriate test article or control reagent in supplemented RPMI 1640 culture medium. The FluoroSpot plates were incubated for 48 h at 37°C/5% CO2. After 48 h, FluoroSpot plates were developed according to the manufacturer's directions. Spots were counted on an iSpot Spectrum FluoroSpot reading system (AID, Strassberg, Germany) using software 7.0, build 14790. Fluorophore-specific spot parameters were defined using the spot size, spot intensity, and spot gradient. A spot separation algorithm was applied for optimal spot detection. Analysis and counting of spots were performed by unbiased experts at ZellNet Consulting, Inc. (Fort Lee, NJ).

[10] = short assay peptides (Cys7 replaced with Ser), competition with biotinylated allele-specific peptide, soluble HLA DR, overnight, time-resolved fluorescence, triplicate, seven concentrations, unit inferred
[11] = class by IC50, short assay peptides

## CC(C)C[C@H](NC(=O)[C@H](CCCCN)NC(=O)CNC(=O)[C@H](CC(C)C)NC(=O)[C@@H](NC(=O)[C@H](CO)NC(=O)[C@@H](NC(=O)[C@@H](N)CO)[C@@H](C)O)C(C)C)C(=O)N[C@@H](CO)C(=O)N[C@@H](CCC(N)=O)C(=O)N[C@@H](CCC(=O)O)C(=O)N[C@@H](CC(C)C)C(=O)N[C@@H](Cc1c[nH]cn1)C(=O)N[C@@H](CCCCN)C(=O)N[C@@H](CC(C)C)C(=O)N[C@@H](CCC(N)=O)C(=O)N[C@H](C(=O)N[C@@H](Cc1ccc(O)cc1)C(=O)O)[C@@H](C)O [API SCT(5-22)] (H-STSVLGKLSQELHKLQTY-OH)
[1]; unit inferred
  IC50: 11.1 µM
[2]; unit inferred
  IC50: > 1000 µM
[3]
  IC50: > 1000 µM
[4]
  IC50: > 1000 µM
[5]; [10]
  IC50: 105 µM
[6]; [10]
  IC50: 95.9 µM
[7]; unit inferred
  IC50: > 1000 µM
[8]
  IC50: > 1000 µM

## CC(C)C[C@H](NC(=O)[C@H](CCCCN)NC(=O)[C@@H](N)Cc1c[nH]cn1)C(=O)N[C@@H](CCC(N)=O)C(=O)N[C@H](C(=O)N[C@@H](Cc1ccc(O)cc1)C(=O)N1CCC[C@H]1C(=O)N[C@@H](CCCNC(=N)N)C(=O)N[C@H](C(=O)N[C@H](C(=O)NCC(=O)N[C@@H](CO)C(=O)NCC(=O)N[C@H](C(=O)O)[C@@H](C)O)[C@@H](C)O)[C@@H](C)O)[C@@H](C)O [DES-ASN26_SCT(17-31)] (H-HKLQTYPRTTGSGT-OH; N-terminus and C-terminus assumed)
[1]; unit not given
  IC50, HLA DRB1*0101: no binding
[2]
  IC50, HLA DRB1*0301: no binding
[3]
  IC50, HLA DRB1*0901: no binding
[4]
  IC50, HLA DRB1*0401: no binding
[5]; [11]
  binding affinity class, HLA DRB1*1101: negligible affinity
[6]; [11]
  binding affinity class, HLA DRB1*1501: moderate affinity

## CC(C)C[C@H](NC(=O)[C@H](CCC(=O)O)NC(=O)[C@H](CCC(N)=O)NC(=O)[C@@H](N)CO)C(=O)N[C@@H](Cc1c[nH]cn1)C(=O)N[C@@H](CCCCN)C(=O)N[C@@H](CC(C)C)C(=O)N[C@@H](CCC(N)=O)C(=O)N[C@@H](Cc1ccc(O)cc1)C(=O)N1CCC[C@H]1C(=O)N[C@@H](CCCNC(=N)N)C(=O)N[C@H](C(=O)N[C@@H](CC(N)=O)C(=O)N[C@H](C(=O)NCC(=O)N[C@@H](CO)C(=O)NCC(=O)N[C@H](C(=O)O)[C@@H](C)O)[C@@H](C)O)[C@@H](C)O [DES-THR21_SCT(13-27)] (H-SQELHKLQYPRTNTGSGT-OH; N-terminus and C-terminus assumed)
[2]
  IC50, HLA DRB1*0301: did not bind
[4]
  IC50, HLA DRB1*0401: did not bind
[7]; unit not given
  IC50, HLA DRB1*1301: did not bind

## CSNLSTCVLGKLSQELH (Ac-K) LQTYPRTNTGSGTP (disulfide) [06-LYS-AC18_SCT_18X, full-length SCT impurity, acetylation of lysine 18]
[9]
  Percentage of Responding Donors: 56%
  Responding Donors: 9

## CSNLSTCVLGKLSQELHKLETYPRTNTGSGTP (disulfide) (disulfide 1-7 (inferred)) [07_Q20E_SCT, full-length SCT impurity, glutamine 20 deamidated to glutamic acid]
[9]
  Percentage of Responding Donors: 56%
  Responding Donors: 9

## CSNLSTCVLGKLSQELHKLQTYPRTNTGGSGTP (disulfide 1-7 (inferred)) [12_ENDO-GLY28_SCT, full-length SCT impurity, insertion of glycine at position 28]
[9]
  Percentage of Responding Donors: 63%
  Responding Donors: 10

## CSNLSTCVLGKLSQELHKLQTYPRTNTGSGTTP (disulfide 1-7 (inferred)) [17_ENDO-THR31_SCT, full-length SCT impurity, insertion of threonine at position 31]
[9]
  Percentage of Responding Donors: 69%
  Responding Donors: 11
